# Measured values taken from patent publication US20260176636A1, “APTAMER-DIRECT INHIBITOR CONJUGATES AND METHODS OF USING THE SAME” (Duke University, priority 2022, published 2026).
# pIC50, pKd, pKi: −log10 of the molar value. Entries after “also recorded” stand apart in the source; their conditions may differ.
# What was measured:
# human factor Xa = molecular target: T1, human factor Xa (Homo sapiens, UniProt P00742); assay: Fluorogenic activity assay (fluorescent peptidyl substrate cleavage), factor Xa; format: biochemical; details: for pIC50: factor Xa 0.5 nM, fluorogenic substrate 50 μM; for factor Xa inhibition, result in words: fluorogenic substrate assay; for antidote reversal of factor Xa inhibition by 11F7t-20A-DAB, result in words: antidote oligonucleotide
# T1 construct: Human alpha thrombin, human factor Xa, and human fibrinogen were purchased from Haematologic Technologies Inc; purchased Haematologic Technologies Inc
# Procedure: (§2) Fluorogenic activity assay: All reagents were freshly reconstituted in the reaction buffer (20 mM HEPES, 150 mM NaCl, and 2 mM CaCl2), 0.02%, Tween 20, pH 7.5) before the assay. 10 μL of thrombin or factor Xa (final concentration 0.5 nM) were first incubated with 5 μL of inhibitor, inhibitor/antidote mixture, or buffer control on a 384-well opaque plate for 5 min at 28° C. 10 μL of fluorogenic substrate (final concentration 50 μM) was then added to the mixture and the time-course fluorescence (λex=352 nm, λem=470 nm) of the sample were recorded every minute for 15 min at 28° C. using a SpectraMax i3 microplate reader (Molecular Devices). The catalytic rate of the protease was quantified by the slope from linear regression of the time-dependent fluorescence intensity and normalized with the sample containing no inhibitor as 100%. Each experiment was performed in triplicates.
# Human alpha thrombin = Human alpha thrombin (Homo sapiens, UniProt P00734); assay: Fluorogenic activity assay (fluorescent peptidyl substrate cleavage), thrombin; details: for thrombin inhibition, result in words / antidote reversal of thrombin inhibition, result in words: fluorogenic substrate assay; for antidote reversal of thrombin inhibition, result in words: antidote oligonucleotide
# Procedure: Initial velocity studies of fluorescent peptidyl substrate cleavage by thrombin were used to assess protease inhibition by the EXACT inhibitor (FIG. 1c).
# as §2
# thrombin = thrombin (Homo sapiens, UniProt P00734); details: read-out: inhibition constant (Ki), thrombin; cited from earlier work
# [1] = molecular target: T2, thrombin (cleavage of fibrinogen) (Homo sapiens, UniProt P00734); assay: Fibrinogen turbidity assay; format: biochemical; details: 2 μM AO2 added at 10 min to thrombin-fibrinogen-HD22-7A-DAB (50 nM)
# T2 construct: Human alpha thrombin, human factor Xa, and human fibrinogen were purchased from Haematologic Technologies Inc; purchased Haematologic Technologies Inc
# Procedure: To test the kinetics of antidote reversal, 1 μL AO2 (final concentration 2 μM) was added to the reaction 10 min after fibrinogen addition. The maximum absorption over the period of assay in the absence and presence of different inhibitors were determined. The time to reach 10%, 50%, and 90% maximum absorption increase from the start point were calculated and recorded as lag time, t50, and t90, respectively, for each inhibitor to evaluate the kinetic of fibrinogen activation. Each experiment was performed in triplicates to determine the mean and standard deviation of each parameter.
# normal human plasma [2] = assay: Thrombin time (TT) plasma coagulation assay; details: 2 μM AO2
# Procedure: (§1) Plasma coagulation assays: Thrombin time (TT), prothrombin time (PT), and activated partial thromboplastin time (aPTT) assays were performed in citrated normal human plasma on a hemostasis coagulation analyzer (Diagnostica Stago). For TT, 5 μL of inhibitors in the reaction buffer were mixed with 100 μL of plasma and incubated at 37° C. for 5 min. 50 μL of thrombin (6 NIH units/ml) in the reaction buffer was then added to initiate clotting. For PT, 5 μl of inhibitors in the reaction buffer were mixed with 50 μL of plasma and incubated at 37° C. for 5 min. 100 μL of TriniCLOT PT Excel S reagent was then added to initiate clotting. For aPTT, 5 μL of inhibitors in the reaction buffer were mixed with 50 μL of plasma and incubated at 37° C. for 5 min, 50 μL of TriniCLOT aPTT S reagents was then added followed by another 5 min incubation at 37° C. Finally, 50 μL of 20 mM CaCl2) was added to initiate clotting. To characterize antidote reversal of HD22-7A-DAB in the above assays, 5 μL AO2 (finial concentration 2 μM) in the reaction buffer was added after 5-min incubation between plasma and HD22-7A-DAB, followed by another 5 min of incubation before the next step. All assays are performed induplicates.
# normal human plasma [3] = assay: Prothrombin time (PT) plasma coagulation assay; details: 2 μM AO2
# Procedure: as §1
# normal human plasma [4] = assay: Activated partial thromboplastin time (aPTT) plasma coagulation assay
# Procedure: as §1
# factor Xa = details: cited from earlier work
# T1 sequence (P00742 235-488 limits assumed): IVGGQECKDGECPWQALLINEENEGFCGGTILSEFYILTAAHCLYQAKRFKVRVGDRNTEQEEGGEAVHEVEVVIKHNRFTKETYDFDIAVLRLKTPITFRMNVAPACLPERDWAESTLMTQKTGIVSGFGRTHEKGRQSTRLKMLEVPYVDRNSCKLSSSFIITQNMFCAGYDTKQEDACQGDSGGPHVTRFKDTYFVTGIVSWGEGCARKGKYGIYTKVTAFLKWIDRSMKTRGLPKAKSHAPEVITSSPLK
# T1 sequence (P00742 41-179 limits assumed): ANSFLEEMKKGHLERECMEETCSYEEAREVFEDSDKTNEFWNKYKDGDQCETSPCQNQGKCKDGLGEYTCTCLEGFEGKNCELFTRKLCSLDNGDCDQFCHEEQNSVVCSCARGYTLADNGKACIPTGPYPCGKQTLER
compound,measurement,setting,value
"COc1ccc(-n2nc(C(=O)O)c3c2C(=O)N(c2ccc(N4CCCCC4=O)cc2)CC3)cc1 [APX, apixaban-COOH, reference compound]",pIC50,human factor Xa,8.26
11F7t-20A-DAB (GAGAGCCCCAGCGAGAUAAUACUUGGCCCCGCUCUUU; 5' DAB-C6H12-2'OMeA linker conjugate; modified_base 37 OTHER; Inverted dT),pIC50,human factor Xa,9.74
same,"factor Xa inhibition, result in words",human factor Xa,"significantly higher inhibitory effect of thrombin than DAB, 11F7t, or their equimolar mixture"
same,enhancement in the IC50 for factor Xa when DAB is conjugated to 11F7t,human factor Xa; versus free DAB,> 2500 fold
same,"thrombin inhibition, result in words",Human alpha thrombin,no different from DAB alone
"AO5.4: antidote for 11F7t-20A-DAB pairing with entire linker and part of aptamer, SEQ ID NO: 11 (TATTATCTCGCTGGGGCTCTCTTTTTTTTTTTTTTTTTTTT; antidote oligonucleotide, chemistry not given here, further chemistry not given here)","antidote reversal of factor Xa inhibition by 11F7t-20A-DAB, result in words",human factor Xa; listed as A05.4,efficiently reversed
same,"antidote reversal of factor Xa inhibition by 11F7t-20A-DAB, result in words",human factor Xa; listed as AG5.4,effectively reverses the inhibition
hirudin,pKi,thrombin,11.00
"AO2: antidote oligonucleotide complementary to entire HD22 aptamer and linker, SEQ ID NO: 4 (AGTCACCCCAACCTGCCCTACCACGGACTTTTTTTT; antidote oligonucleotide complementary to aptamer and linker, chemistry not given here, further chemistry not given here)",lag time after antidote addition,[1],9.8 min
same,time over which absorbance increased and saturated after antidote,[1],20.7 min
same,antidote reversal of HD22-7A-DAB in TT,normal human plasma [2],largely reversed within 5 minutes
same,antidote reversal of HD22-7A-DAB in PT,normal human plasma [3],efficiently reversed
same,reduction of the potency of HD22-7A-DAB by antidote,"Human alpha thrombin; antidote oligonucleotide added to HD22-7A-DAB, FIG. 1c","more than 10,000 fold"
same,"antidote reversal of thrombin inhibition, result in words",Human alpha thrombin,efficiently reversed; also recorded: reduces the potency of the EXACT conjugate to an extent that is significantly lower than free DAB
same,antidote reversal of HD22-7A-DAB in aPTT,normal human plasma [4]; 2 μM AO2,efficiently reversed
11F7t-20A-APX (GAGAGCCCCAGCGAGAUAAUACUUGGCCCCGCUCUUU; 5' APX-C6H12-2'OMeA linker conjugate; modified_base 37 OTHER; Inverted dT),pIC50,human factor Xa,9.77
same,"effect on aPTT, result in words","normal human plasma [4]; normal human plasma, comparison with DAB at 500 nM","significantly higher anticoagulant activity than free aptamer, small molecule inhibitor, and their equimolar mixture"
"11F7t: factor Xa RNA aptamer, SEQ ID NO: 9 (GAGAGCCCCAGCGAGAUAAUACUUGGCCCCGCUCUUU; modified_base 37 OTHER; Inverted dT) [reference compound]","factor Xa inhibition, result in words",human factor Xa,showed no inhibition
same,pKd,factor Xa; free aptamer,8.90
"TAP: Tick anticoagulant peptide secreted by Ornithodoros moubata, factor Xa inhibitor (YNRLCIKPRDWIDECDSNEGGERAYFRNGKGGCDSFWICPEDHTGADYYSSYRDCFNACI; UniProt P17726 1-60, looked up)",pKi,"factor Xa; read-out: Ki, free FXa",9.74
"HD1-12A-DAB (GGTTGGTGTGGTTGG; 3' DAB conjugate via C6H12O2 linker, further chemistry not given here)","thrombin inhibition, result in words",Human alpha thrombin,"significantly higher inhibitory effect to thrombin compared with DAB, HD1, or their equimolar mixture"
same,"antidote reversal of thrombin inhibition, result in words",Human alpha thrombin,efficiently reversed by specific antidotes; also recorded: efficiently reversed by an antisense oligo
